From patent US11091488B2 (MISSION THERAPEUTICS LIMITED, priority 2015, dated 2021)

target: USP30 (Homo sapiens (Human), UniProt Q70CQ3); experiment: USP30 biochemical IC50 assay; conditions: read-out: IC50 range; fluorescence polarisation, TAMRA labelled peptide linked to ubiquitin; 30 min pre-incubation, read after 2 hr
Sequence (Q70CQ3 57-517): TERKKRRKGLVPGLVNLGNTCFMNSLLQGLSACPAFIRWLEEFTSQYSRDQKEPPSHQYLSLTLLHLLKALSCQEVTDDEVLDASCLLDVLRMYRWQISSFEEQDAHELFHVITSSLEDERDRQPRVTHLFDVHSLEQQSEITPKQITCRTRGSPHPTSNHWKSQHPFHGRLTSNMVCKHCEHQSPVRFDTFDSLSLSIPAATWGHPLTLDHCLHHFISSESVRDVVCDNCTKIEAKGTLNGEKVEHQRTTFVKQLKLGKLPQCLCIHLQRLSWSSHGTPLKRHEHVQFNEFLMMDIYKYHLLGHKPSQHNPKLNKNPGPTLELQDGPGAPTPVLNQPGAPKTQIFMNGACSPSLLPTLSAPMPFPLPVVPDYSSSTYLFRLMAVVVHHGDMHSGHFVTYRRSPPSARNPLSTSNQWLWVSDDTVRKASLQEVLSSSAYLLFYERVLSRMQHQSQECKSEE
Description: USP30 Biochemical IC50 Assay
Dilution plates were prepared at 21 times the final concentration (2100 μM for a final concentration of 100 μM) in 50% DMSO in a 96-well polypropylene V-bottom plate (Greiner #651201). A typical 8-point dilution series to be 100, 30, 10, 3, 1, 0.3, 0.1, 0.03 μM final. Reactions were performed in duplicate in black 384 well plates (small volume, Greiner 784076) in a final reaction volume of 21 μl. Either 1 μl of 50% DMSO or diluted compound was added to the plate. USP30 was diluted in reaction buffer (40 mM Tris, pH 7.5, 0.005% Tween 20, 0.5 mg/ml BSA, 5 mM—beta-mercaptoethanol) to the equivalent of 0.05 μl/well and 10 μl of diluted USP30 was added to the compound. Enzyme and compound were incubated for 30 min at room temp. Reactions were initiated by the addition of 50 nM of TAMRA labelled peptide linked to ubiquitin via an iso-peptide bond as fluorescence polarisation substrate. Reactions were read immediately after addition of substrate and following a 2 hr incubation at room temperature. Readings were performed on a Pherastar Plus (BMG Labtech). λ Excitation 540 nm; λ Emission 590 nm.

Row | IC50 [nM] | SMILES
1 | 100 to 1000 | N#CN1CC[C@@H](N2Cc3ccccc3N(Cc3ccccc3)S2(=O)=O)C1 [Example 69, (R)-3-(1-benzyl-2,2-dioxido-1,4-dihydro-3H-benzo[c][1,2,6]thiadiazin-3-yl)pyrrolidine-1-carbonitrile]
2 | 100 to 1000 | N#CN1CC[C@@H](N2CCN(c3ccc(N4CCOCC4)cc3)S2(=O)=O)C1 [Example 22, (R)-3-(5-(4-morpholinophenyl)-1,1-dioxido-1,2,5-thiadiazolidin-2-yl)pyrrolidine-1-carbonitrile]
3 | < 100 | CN1C(=O)COc2cc(N3CCN([C@@H]4CCN(C#N)C4)S3(=O)=O)ccc21 [Example 2, (R)-3-(5-(4-methyl-3-oxo-3,4-dihydro-2H-benzo[b][1,4]oxazin-7-yl)-1,1-dioxido-1,2,5-thiadiazolidin-2-yl)pyrrolidine-1-carbonitrile]
4 | 100 to 1000 | C[C@H]1CN(C#N)C[C@@H]1N1CCN(c2cccc(N3CCN(C)CC3)c2)S1(=O)=O [Example 40, (3S,4R)-3-methyl-4-(5-(3-(4-methylpiperazin-1-yl)phenyl)-1,1-dioxido-1,2,5-thiadiazolidin-2-yl)pyrrolidine-1-carbonitrile]
